Data published in patent US20100029620A1, “SUBSTITUTED TRIAZOLINE, TETRAZOLONE AND IMIDAZOLONE DERIVATIVES FOR USE AS A MEDICINE” (JANSSEN PHARMACEUTICA N.V., priority 2004, published 2010).

Legend:
[1] = target: T1, human adrenergic-α2A receptor (Homo sapiens, UniProt P08913); assay: Radioligand binding experiment for α2A-adrenoceptor ([3H]-raulwolscine competition, CHO cell membranes); conditions: [3H]raulwolscine 1 nM, membranes of CHO cells transfected with human α2A receptor; read-out: pIC50 α2A (converted)
T1 construct: expressed in transfected cells; membrane preparation
T1 sequence (P08913 1-465): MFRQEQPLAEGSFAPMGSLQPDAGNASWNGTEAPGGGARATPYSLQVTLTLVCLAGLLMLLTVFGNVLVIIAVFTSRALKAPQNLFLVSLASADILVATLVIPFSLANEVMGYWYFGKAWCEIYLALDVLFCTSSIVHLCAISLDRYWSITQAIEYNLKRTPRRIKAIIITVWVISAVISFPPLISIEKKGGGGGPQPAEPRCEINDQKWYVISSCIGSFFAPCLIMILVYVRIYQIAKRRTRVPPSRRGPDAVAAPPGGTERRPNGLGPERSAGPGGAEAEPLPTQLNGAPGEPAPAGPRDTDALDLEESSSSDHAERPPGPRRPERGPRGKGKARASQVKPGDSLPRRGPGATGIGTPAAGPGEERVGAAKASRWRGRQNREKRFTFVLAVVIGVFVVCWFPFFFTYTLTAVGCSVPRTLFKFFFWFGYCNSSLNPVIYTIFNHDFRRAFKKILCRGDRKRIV
In short: (§1)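 CHO cell membranes stably expressing human α2A, α2B or α2C receptor were incubated with 1 nM [3H]-raulwolscine ± test compound, 60 min at 25° C in glycylglycine 25 mM, pH 8.0, then filtered and counted. Nonspecific binding: 1 μM oxymetazoline (α2A, α2B) or 1 μM spiroxatrine (α2C). pIC50 from nonlinear regression of % total binding.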

[2] = target: T2, human adrenergic-α2B receptor (Homo sapiens, UniProt P18089); assay: Radioligand binding experiment for α2B-adrenoceptor ([3H]-raulwolscine competition, CHO cell membranes); conditions: [3H]raulwolscine 1 nM, membranes of CHO cells transfected with human α2B receptor; read-out: pIC50 α2B (converted)
T2 construct: expressed in transfected cells; membrane preparation
T2 sequence (P18089 1-450): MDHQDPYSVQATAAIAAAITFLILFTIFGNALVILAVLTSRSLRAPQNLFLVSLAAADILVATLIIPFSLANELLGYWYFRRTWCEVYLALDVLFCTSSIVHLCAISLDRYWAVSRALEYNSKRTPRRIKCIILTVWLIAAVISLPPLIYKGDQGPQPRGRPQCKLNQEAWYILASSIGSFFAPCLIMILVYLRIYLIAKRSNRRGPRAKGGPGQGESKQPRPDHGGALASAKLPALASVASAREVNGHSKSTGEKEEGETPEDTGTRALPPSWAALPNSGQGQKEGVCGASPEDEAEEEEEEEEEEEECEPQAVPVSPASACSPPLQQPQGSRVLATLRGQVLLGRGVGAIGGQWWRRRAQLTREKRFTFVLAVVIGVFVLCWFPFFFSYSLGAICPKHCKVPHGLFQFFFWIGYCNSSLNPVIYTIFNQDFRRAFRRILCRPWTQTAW
In short: as §1

[3] = target: T3, human adrenergic-α2C receptor (Homo sapiens, UniProt P18825); assay: Radioligand binding experiment for α2C-adrenoceptor ([3H]-raulwolscine competition, CHO cell membranes); conditions: [3H]raulwolscine 1 nM, membranes of CHO cells transfected with human α2C receptor; read-out: pIC50 α2C (converted)
T3 construct: expressed in transfected cells; membrane preparation
T3 sequence (P18825 1-462): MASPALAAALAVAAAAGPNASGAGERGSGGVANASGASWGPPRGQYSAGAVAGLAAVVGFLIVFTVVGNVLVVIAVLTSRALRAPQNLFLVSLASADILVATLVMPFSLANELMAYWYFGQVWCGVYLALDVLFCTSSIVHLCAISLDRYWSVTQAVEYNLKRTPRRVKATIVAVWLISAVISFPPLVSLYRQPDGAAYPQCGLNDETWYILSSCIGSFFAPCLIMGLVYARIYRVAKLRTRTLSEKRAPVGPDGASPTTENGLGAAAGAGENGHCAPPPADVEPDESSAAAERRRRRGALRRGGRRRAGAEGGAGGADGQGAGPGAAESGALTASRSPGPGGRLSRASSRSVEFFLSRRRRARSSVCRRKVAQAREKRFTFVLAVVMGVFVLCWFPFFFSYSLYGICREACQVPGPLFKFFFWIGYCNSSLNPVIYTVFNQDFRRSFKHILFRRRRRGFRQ
In short: as §1

Row | SMILES | IC50 [1] [nM] | IC50 [2] [nM] | IC50 [3] [nM]
1 | COc1ccccc1C1CCN(C(C)C(C)n2ncn(-c3ccc(N4CCN(c5ccc(O)cc5)CC4)cc3)c2=O)C1 (stereo not drawn) [compound 55] | 1260 | 50.1 | 15.8
2 | O=c1n(-c2ccc(N3CCCCC3)cc2)cnn1CC1CCN(CCOc2ccccc2)CC1 [compound 63] | 158 | 31.6 | 5.01
3 | O=c1n(-c2ccc(CN3CCC(N4CCCC4)CC3)cc2)cnn1CCNCCOc1ccccc1 [compound 21] | 39.8 | 79.4 | 1.58
4 | O=c1n(-c2ccc(NCc3ccc(F)cc3)cc2)cnn1CC1CCN(CCOc2ccccc2)CC1 [compound 48] | 200 | 25.1 | 3.16
5 | CN1CCCN(c2ccc(-n3cnn(CCNCCOc4ccccc4)c3=O)cc2)CC1 [compound 12] | 126 | 100 | 1.58

Results, then the compound that gave them:

Row | IC50 [1] [nM] | IC50 [2] [nM] | IC50 [3] [nM] | SMILES
6 | 25.1 | 20 | 0.631 | O=C1c2ccccc2C(=O)N1CCCn1cnn(CC2CCN(CCOc3ccccc3)CC2)c1=O [compound 84]
7 | 25.1 | 200 | 5.01 | O=c1n(-c2ccc(CNCc3ccccc3)cc2)cnn1CCNCCOc1ccccc1 [compound 92]
8 | 79.4 | 251 | 3.16 | O=c1n(-c2ccc3c(c2)CCN(CCN2CCCC2)C3)cnn1CCNCCOc1ccccc1 [compound 102]
9 | 631 | 398 | 10 | CC(=O)N1CCc2cc(-n3cnn(CCNCCOc4ccccc4)c3=O)ccc2C1 [compound 100]
10 | 63.1 | 79.4 | 5.01 | O=c1n(CC2CCN(CCOc3ccccc3)CC2)nnn1-c1ccc(CN2CCOCC2)cc1 [compound 104]
11 | 316 | 50.1 | 5.01 | C/C(=C\c1ccccc1)CN1CCC(n2cnn(CCCN3C(=O)c4ccccc4C3=O)c2=O)CC1 [compound 83]
